Assay [1] concerns the target T1, Amine oxidase [flavin-containing] B (Homo sapiens, UniProt P27338).
T1 sequence (P27338 whole entry): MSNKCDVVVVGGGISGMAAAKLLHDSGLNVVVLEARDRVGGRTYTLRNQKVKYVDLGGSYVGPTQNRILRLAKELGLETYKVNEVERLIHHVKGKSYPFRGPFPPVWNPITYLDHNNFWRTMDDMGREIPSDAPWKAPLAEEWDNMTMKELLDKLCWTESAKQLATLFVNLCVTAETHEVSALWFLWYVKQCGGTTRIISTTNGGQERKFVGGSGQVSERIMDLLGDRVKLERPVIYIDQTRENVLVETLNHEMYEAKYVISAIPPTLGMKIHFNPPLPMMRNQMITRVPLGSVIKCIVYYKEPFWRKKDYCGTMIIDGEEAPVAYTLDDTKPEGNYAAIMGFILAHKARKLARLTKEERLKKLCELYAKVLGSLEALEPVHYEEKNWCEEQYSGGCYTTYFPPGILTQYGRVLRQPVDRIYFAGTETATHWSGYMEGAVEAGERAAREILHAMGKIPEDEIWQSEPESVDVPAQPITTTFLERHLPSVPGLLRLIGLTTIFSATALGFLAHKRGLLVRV
As to the kind of experiment: Inhibition of MAO-B (unknown origin) using kynuramine as substrate preincubated for 10 mins followed by substrate addition and measured after 20 mins by fluorescence microplate reader assay.

Assay [2] addresses T2, Amine oxidase [flavin-containing] A (Homo sapiens, UniProt P21397).
T2 sequence (P21397 whole entry): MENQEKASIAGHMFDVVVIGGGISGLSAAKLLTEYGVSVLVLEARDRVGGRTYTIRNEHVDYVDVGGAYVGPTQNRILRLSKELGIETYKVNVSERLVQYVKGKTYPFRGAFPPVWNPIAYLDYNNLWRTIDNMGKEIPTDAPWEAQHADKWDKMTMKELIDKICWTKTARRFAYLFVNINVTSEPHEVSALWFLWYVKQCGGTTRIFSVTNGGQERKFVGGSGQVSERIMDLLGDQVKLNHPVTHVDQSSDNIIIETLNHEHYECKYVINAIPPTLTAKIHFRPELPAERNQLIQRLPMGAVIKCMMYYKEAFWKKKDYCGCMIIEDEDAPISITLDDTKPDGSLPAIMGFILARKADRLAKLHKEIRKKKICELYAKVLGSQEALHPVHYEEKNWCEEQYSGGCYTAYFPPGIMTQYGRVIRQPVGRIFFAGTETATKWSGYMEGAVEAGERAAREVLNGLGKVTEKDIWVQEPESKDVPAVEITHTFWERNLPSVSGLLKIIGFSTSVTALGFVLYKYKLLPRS
Nature of the assay: Inhibition of recombinant human MAO-A using kynuramine as substrate incubated for 10 mins followed by substrate addition and measured for 20 mins by Fluorescence microplate reader assay.

In assay [3] the target is T3, Amine oxidase [flavin-containing] B (Rattus norvegicus, UniProt P19643).
T3 sequence (P19643 whole entry): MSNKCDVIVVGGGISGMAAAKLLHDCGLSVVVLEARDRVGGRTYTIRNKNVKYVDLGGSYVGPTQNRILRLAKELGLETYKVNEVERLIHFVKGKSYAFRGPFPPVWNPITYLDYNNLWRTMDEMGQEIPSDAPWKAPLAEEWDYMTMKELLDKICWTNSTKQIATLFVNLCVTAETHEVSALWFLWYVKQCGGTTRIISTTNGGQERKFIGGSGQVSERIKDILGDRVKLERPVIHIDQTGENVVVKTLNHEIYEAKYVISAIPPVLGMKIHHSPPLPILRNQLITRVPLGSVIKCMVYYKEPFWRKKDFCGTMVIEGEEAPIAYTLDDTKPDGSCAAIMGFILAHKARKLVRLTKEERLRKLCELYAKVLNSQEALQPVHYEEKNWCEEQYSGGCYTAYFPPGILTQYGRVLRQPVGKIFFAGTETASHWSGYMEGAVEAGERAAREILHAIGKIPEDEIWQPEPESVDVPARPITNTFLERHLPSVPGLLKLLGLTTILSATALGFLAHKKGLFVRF
As to the kind of experiment: Inhibition of MAO-B expressed in Wistar rat liver preincubated for 30 mins followed by 4-(trifluoromethyl) benzylamine addition and measured after 90 mins by microplate reader analysis. It counts as tissue-based.

Assay [4] has as its target T4, Acetylcholinesterase (Electrophorus electricus, UniProt O42275). Nature of the assay: Inhibition of electric eel AChE using acetylthiocholine iodide as substrate preincubated for 5 mins followed by substrate addition and measured for 20 mins by DTNB reagent based Ellman's method.
The target in the next assay is Cholinesterase (Equus caballus, UniProt P81908). As to the kind of experiment: Inhibition of horse serum BuChE using butyrylthiocholine iodide as substrate preincubated for 5 mins followed by substrate addition and measured for 20 mins by DTNB reagent based Ellman's method.
Chain of Cholinesterase (P81908 whole entry): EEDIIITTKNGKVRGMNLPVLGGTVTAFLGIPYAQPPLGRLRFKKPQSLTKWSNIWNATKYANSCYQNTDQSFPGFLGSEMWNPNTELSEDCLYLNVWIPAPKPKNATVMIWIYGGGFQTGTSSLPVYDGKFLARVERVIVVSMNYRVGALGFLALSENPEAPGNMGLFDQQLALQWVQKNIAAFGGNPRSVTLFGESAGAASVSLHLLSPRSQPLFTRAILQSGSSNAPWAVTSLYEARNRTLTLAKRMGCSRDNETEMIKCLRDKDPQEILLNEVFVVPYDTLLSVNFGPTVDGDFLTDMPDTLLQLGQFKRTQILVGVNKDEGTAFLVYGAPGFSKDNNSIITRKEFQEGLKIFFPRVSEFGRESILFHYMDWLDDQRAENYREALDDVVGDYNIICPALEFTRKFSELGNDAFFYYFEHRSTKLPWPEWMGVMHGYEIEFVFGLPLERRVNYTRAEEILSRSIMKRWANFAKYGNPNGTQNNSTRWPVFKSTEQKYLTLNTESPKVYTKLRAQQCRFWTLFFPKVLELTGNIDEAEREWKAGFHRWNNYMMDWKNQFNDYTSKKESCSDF
In assay [5] the target is Acetylcholinesterase (Electrophorus electricus) (UniProt O42275). Nature of the assay: Inhibition of electric eel AChE using acetylthiocholine iodide as substrate at 1 uM preincubated for 5 mins followed by substrate addition and measured for 20 mins by DTNB reagent based Ellman's method.
Chain of Acetylcholinesterase (Electrophorus electricus) (O42275 24-633 limits assumed): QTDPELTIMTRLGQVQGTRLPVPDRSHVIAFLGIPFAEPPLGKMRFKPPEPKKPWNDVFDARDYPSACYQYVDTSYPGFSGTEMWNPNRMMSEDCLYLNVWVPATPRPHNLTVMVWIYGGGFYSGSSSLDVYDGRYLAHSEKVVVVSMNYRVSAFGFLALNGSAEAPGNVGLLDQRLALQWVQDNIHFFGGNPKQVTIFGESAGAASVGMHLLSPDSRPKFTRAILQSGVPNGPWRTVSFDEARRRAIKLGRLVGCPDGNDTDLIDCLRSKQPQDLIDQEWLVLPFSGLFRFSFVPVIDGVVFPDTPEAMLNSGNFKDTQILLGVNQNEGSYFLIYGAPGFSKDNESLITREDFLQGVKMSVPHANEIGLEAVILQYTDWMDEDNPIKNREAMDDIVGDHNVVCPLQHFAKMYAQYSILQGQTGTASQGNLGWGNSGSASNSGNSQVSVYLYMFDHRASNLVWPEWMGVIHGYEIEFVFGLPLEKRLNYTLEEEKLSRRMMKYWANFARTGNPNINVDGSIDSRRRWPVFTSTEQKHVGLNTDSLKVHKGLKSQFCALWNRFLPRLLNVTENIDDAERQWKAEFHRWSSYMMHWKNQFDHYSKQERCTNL
For assay [6], the target named is T1, Amine oxidase [flavin-containing] B. Nature of the assay: Inhibition of MAO-B (unknown origin) using as tyramine as substrate by Ampliflu red reagent based fluorometric method.
Assay [7] concerns the target T4, Acetylcholinesterase. As to the kind of experiment: Inhibition of electric eel AChE using acetylthiocholine iodide as substrate incubated for 6 mins followed by substrate addition by DTNB reagent based Ellman's method.
Assay [8] addresses Cholinesterase (Equus caballus) (UniProt P81908). As to the kind of experiment: Inhibition of horse serum BuChE using butyrylthiocholine iodide as substrate at 10 uM incubated for 6 mins followed by substrate addition by DTNB reagent based Ellman's method.
Assay [9] concerns the target T2, Amine oxidase [flavin-containing] A. As to the kind of experiment: Inhibition of recombinant human MAO-A using p-tyramine as substrate incubated for 15 mins followed by substrate addition and measured for 15 to 20 mins by Amplex Red assay.
Assay [10] has as its target T1, Amine oxidase [flavin-containing] B. As to the kind of experiment: Inhibition of recombinant human MAO-B using p-tyramine as substrate incubated for 15 mins followed by substrate addition and measured upto 20 mins by Amplex Red assay.
The target of assay [11] is T3, Amine oxidase [flavin-containing] B. As to the kind of experiment: Inhibition of rat brain mitochondria MAO-B using p-tyramine as substrate incubated for 15 mins followed by substrate addition and measured for 15 by microplate fluorescence reader analysis.
Assay [12] has as its target T1, Amine oxidase [flavin-containing] B. As to the kind of experiment: Inhibition of recombinant human MAO-B using kynuramine as substrate incubated for 20 min by fluorescent spectrophotometric assay.
For the next assay, the species on record is Homo sapiens. Nature of the assay: Selectivity index, ratio of IC50 for inhibition of recombinant human MAO-B to IC50 for inhibition of recombinant human MAO-A.
For assay [13], the target named is T2, Amine oxidase [flavin-containing] A. As to the kind of experiment: Inhibition of recombinant human MAO-A expressed in insect cells using kynuramine as substrate incubated for 20 mins by Amplex Red reagent based fluorometric method.
Assay [14] deals with T1, Amine oxidase [flavin-containing] B. As to the kind of experiment: Inhibition of recombinant human MAO-B expressed in insect cells using kynuramine as substrate incubated for 20 mins by Amplex Red reagent based fluorometric method.
Assay [15] has the same target. As to the kind of experiment: Inhibition of human MAO-B.
In assay [16] the target is T2, Amine oxidase [flavin-containing] A. As to the kind of experiment: Inhibition of recombinant human MAO-A using p-tyramine as substrate incubated for 10 mins followed by substrate addition and measured 20 mins by fluorescence assay.
The target of assay [17] is T1, Amine oxidase [flavin-containing] B. As to the kind of experiment: Inhibition of recombinant human MAO-B using p-tyramine as substrate incubated for 10 mins followed by substrate addition and measured 20 mins by fluorescence assay.
The target in assay [18] is T2, Amine oxidase [flavin-containing] A. As to the kind of experiment: Inhibition of MAO-A (unknown origin) using kynuramine as substrate by spectrophotometric assay.
Assay [19] concerns the target T1, Amine oxidase [flavin-containing] B. As to the kind of experiment: Inhibition of MAO-B (unknown origin) using benzylamine as substrate by spectrophotometric assay.
For assay [20] the target is unchanged. As to the kind of experiment: Inhibition of human MAO-B using tyramine as substrate by amplex red assay.
Assay [21] shares this target. Nature of the assay: Inhibition of MAO-B (unknown origin) using tyramine hydrochloride as substrate incubated for 30 mins followed by substrate addition and measured after 5 mins by spectrophotometric assay.

Molecules are shown by their SMILES.

T4 sequence (O42275 whole entry): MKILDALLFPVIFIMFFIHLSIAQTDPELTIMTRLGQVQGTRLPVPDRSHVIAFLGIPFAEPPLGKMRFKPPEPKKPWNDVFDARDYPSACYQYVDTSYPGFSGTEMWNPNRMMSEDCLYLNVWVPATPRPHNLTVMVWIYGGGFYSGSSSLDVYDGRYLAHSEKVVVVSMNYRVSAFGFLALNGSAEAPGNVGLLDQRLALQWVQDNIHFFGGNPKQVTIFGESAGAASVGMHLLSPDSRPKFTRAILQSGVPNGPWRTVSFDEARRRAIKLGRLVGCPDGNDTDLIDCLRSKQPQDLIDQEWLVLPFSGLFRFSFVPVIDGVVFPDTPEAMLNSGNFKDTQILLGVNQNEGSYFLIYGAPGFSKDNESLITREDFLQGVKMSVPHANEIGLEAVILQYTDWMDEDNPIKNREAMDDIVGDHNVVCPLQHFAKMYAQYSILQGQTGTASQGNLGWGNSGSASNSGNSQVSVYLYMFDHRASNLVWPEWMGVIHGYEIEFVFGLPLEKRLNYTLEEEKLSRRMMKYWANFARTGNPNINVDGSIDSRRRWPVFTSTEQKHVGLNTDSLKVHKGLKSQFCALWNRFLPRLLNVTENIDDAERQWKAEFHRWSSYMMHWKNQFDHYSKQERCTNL
Chain of Cholinesterase (Equus caballus) (P81908 whole entry): as the sequence (P81908 whole entry) above

`CCOc1ccc([N+](=O)[O-])c(N/N=C/c2ccco2)n1` registered an IC50 in assay [1] of 10600 nM. For `CCOc1ccc([N+](=O)[O-])c(N/N=C/c2cccn2C)n1`, the IC50 in assay [2] turned out to be 6120 nM. Take `O=c1oc2c(O)c(O)ccc2cc1-c1ccc(O)c(O)c1`: the IC50 in assay [3] is 27000 nM; at Acetylcholinesterase [4], 3040 nM; at Cholinesterase, 8370 nM. In assay [5], `O=c1ccc2ccc(OCCN3CCCCC3)cc2o1` displayed an inhibition of 30.9%. Regarding `O=c1c(O)c(-c2cc(O)c(O)c(O)c2)oc2cc(O)cc(O)c12` [MYRICETIN], in assay [2], the half-inhibitory concentration (IC50) was found to be 9930 nM.

In the case of `O=c1c(O)c(-c2ccc(O)c(O)c2)oc2cc(O)cc(O)c12` [QUERCETIN], the IC50 in assay [2] came to 1520 nM. The compound `Cn1cc(/N=C/c2ccc([N+](=O)[O-])cc2)c(=O)n1-c1ccccc1` came in with an IC50 in assay [6] of 49 nM. Regarding `Cc1c(Cl)c(=O)oc2cc(OCCCSC(=S)N3C(C)CCCC3C)ccc12` (configuration not stated), the results for the IC50 (against Acetylcholinesterase [7]; in assay [9]; in assay [10]) were 44 nM, 5850 nM and 101 nM, respectively. Also, the inhibition in assay [8] turned out to be 23.3%. In assay [11], `COc1ccc(/C(C)=N/NC(=O)C2CC(c3ccccc3)=NO2)cc1OC` (configuration not stated) returned an IC50 of 5.9 nM.

As to `O=c1cc(OCCN2CCOCC2)c2ccccc2o1`, the IC50 in [12] was 372 nM. For the compound `CCCCOc1ccc(C2=NN(C(N)=S)C(c3ccccc3)C2)cc1` (configuration not stated), the Ratio IC50 in the assay filed under Homo sapiens is 9.55. The values for the IC50 in assay [13] and in assay [14] were 3630 nM and 380 nM, respectively.

In turn, `O=C1CCC2(O)c3c(ccc(O)c31)-c1ccc(O)c3c1C2C1OC1C3=O` (configuration not stated) had an IC50 in assay [15] of over 80000 nM. In the case of `Cc1c(/N=C/c2cccc([N+](=O)[O-])c2)c(=O)n(-c2ccccc2)n1C`, inhibition in [6] was half-maximal at 54 nM (IC50). With `Cc1c(Cl)c(=O)oc2cc(OCCCCSC(=S)N3CCCCC3C)ccc12` (configuration not stated), the results for the IC50 (against Acetylcholinesterase [7]; in assay [10]) were 6.8 nM and 8.9 nM, respectively.

Take `CCOc1ccc([N+](=O)[O-])c(N/N=C/c2ccccn2)n1`: the half-inhibitory concentration (IC50) in [2] turned out to be 9520 nM. As for `CN(C)c1ccc(/C=C/C(=O)c2cc(Cl)sc2Cl)cc1`, the results for the IC50 in [16] and in [17] were 1990 nM and 40 nM, respectively. Besides, in the assay listed under Homo sapiens, the Ratio IC50 is 0.02.

For `CCOc1ccc([N+](=O)[O-])c(N/N=C/c2ccc(C(F)(F)F)cc2)n1`, the IC50 in assay [2] amounted to 13100 nM.

For the compound `O=C(/C=C/c1cccc(F)c1)c1ccc(N2CCOCC2)cc1`, the IC50 in [18] was 45000 nM; in assay [19] it was 87 nM. Compound `Cc1ccc(C2=NO[C@H](c3ccc(Cl)c(Cl)c3)C2)cc1` gave an IC50 in [20] of 11000 nM. With `CN1CCN(c2ccc(/C=N/Nc3ccccc3)cc2)CC1`, in [21], the IC50 stood at 28 nM.

In the case of `COc1cc(-c2cc(=O)c3c(O)cc(O)cc3o2)cc(OC)c1O` [TRICIN], the IC50 in [2] was determined as 250 nM. As to `Cc1c(Cl)c(=O)oc2cc(OCCCCSC(=S)N3C(C)CCCC3C)ccc12` (configuration not stated), the IC50 at Acetylcholinesterase [7] was 114 nM; in assay [10] it was 101 nM. Turning to `Cc1c(/N=C/c2ccc(O)cc2)c(=O)n(-c2ccccc2)n1C`, the IC50 in assay [6] came out at 114 nM. As for `C/C(=N\NC(=O)C1CC(c2ccccc2)=NO1)c1ccc(C)cc1` (configuration not stated), in assay [11], the IC50 stood at 5.1 nM.

`Cc1ccc(C2=NOC(c3ccc(Cl)c(Cl)c3)C2)cc1` (configuration not stated) registered an IC50 in assay [20] of 12 nM.
